Consider 8 compounds from patent US4450269A, “Mono-5-substituted-3-chloro-4H-1,2,6-thiadiazin-4-one antifungal agents” (FMC Corporation, priority 1980, dated 1984).

One test concerns Erysiphe polygoni. The following applies: in vivo.
In another test the test system is Pyricularia oryzae. The test is described as follows: microbe, parasite or virus in culture. The conditions noted are these: for Percent Fungus Growth Inhibition: PO, 72 hours; for inhibition at 5 ppm / inhibition at 10 ppm / inhibition at 20 ppm / inhibition at 40 ppm: Pyricularia oryzae, 72 h; for inhibition at 5 ppm: read-out: Percent Fungus Growth Inhibition, PO, 5 ppm, 72 hours; for inhibition at 10 ppm: read-out: Percent Fungus Growth Inhibition, PO, 10 ppm, 72 hours; for inhibition at 20 ppm: read-out: Percent Fungus Growth Inhibition, PO, 20 ppm, 72 hours; for inhibition at 40 ppm: read-out: Percent Fungus Growth Inhibition, PO, 40 ppm, 72 hours. The class given is cell-based.

The next test concerns Uromyces phaseoli. The following applies: in vivo.
The test system of a further test is Cladosporium cucumerinum. The test is described as follows: Spore germination test. The class given is cell-based. The conditions noted are these: CC, 48 hours. In a few lines: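 Compound in acetone mixed into water agar at 40, 10, 2.5 and 1 ppm; plates seeded with spore suspension and incubated 48 hours at 24 °C. Percentage germinated spores counted and converted into a germination rating.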

The next test concerns Fusarium solani. The test is described as follows: Soil treatment, bean root rot. The conditions noted are these: Fusarium solani, soil, 336 h; 150 ppm suspension, 3.8 mg active per pot; read-out: Percent Disease Control, seed/soil, bean root rot. The class given is in vivo. In a few lines:
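Soil around bean seedlings was drenched with a 150 ppm suspension, giving 3.8 mg active per pot. Twenty-four hours later the soil was inoculated with minced Fusarium solani mycelium. Plants were kept in a greenhouse, and percent control of root rot damage was scored after fourteen days.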

The next test concerns Cercospora beticola. As to the kind of experiment: whole plant or invertebrate. The following applies: in Beta vulgaris, foliar, 24 h, read-out: Percent Disease Control, curative, sugar beet leaf spot.

For “3-chloro-5-[methylaminocarbonyloxy)phenoxyl]-4H-1,2,6-thiadiazin-4-one [Compound 36]”, the “Percent Disease Control, curative, bean powdery mildew” value in the test with Erysiphe polygoni was found to be 0%. Further, the “Percent Fungus Growth Inhibition” value in the test on Pyricularia oryzae (5 ppm) turned out to be 31%; with Pyricularia oryzae (10 ppm), 69%; with Pyricularia oryzae (20 ppm) it was 100%; in the test on Pyricularia oryzae (40 ppm), 100%. The “Percent Disease Control, curative, bean rust” value in the test on Uromyces phaseoli worked out at 0%. Further, the “Spore Germination Rating” value is listed as 4 (80-100) in the test with Cladosporium cucumerinum (1.0 ppm), 3 (60-80) with Cladosporium cucumerinum (2.5 ppm) and 0 (0-10) in the test with Cladosporium cucumerinum (40 ppm).
As a reminder, the inhibition is the relative decrease from the control value, in per cent. Turning to `O=C(O)c1ccc(Oc2nsnc(Cl)c2=O)cc1` [Compound 50, 3-(4-carboxyphenoxy)-5-chloro-4H--1,2,6-thiadiazin-4-one], the pest or weed control at 150 ppm, 3.8 mg/pot in the test on Fusarium solani was 0%. In the test with Pyricularia oryzae, the inhibition at 5 ppm was determined as 11%, the inhibition at 10 ppm is 0%, the inhibition at 20 ppm is 11% and the inhibition at 40 ppm came to 100%. In addition, the “Spore Germination Rating” value with Cladosporium cucumerinum (1.0 ppm) is recorded as 3 (60-80). Also, in the test with Cladosporium cucumerinum (2.5 ppm), the “Spore Germination Rating” value is 3 (60-80). Moreover, the “Spore Germination Rating” value with Cladosporium cucumerinum (10 ppm) is 3 (60-80). Moreover, the “Spore Germination Rating” value in the test with Cladosporium cucumerinum (40 ppm) is 2 (40-60). Further, in the test with Cercospora beticola, the pest or weed control at 150 ppm is 50%.
For the compound `Cc1cc(Oc2nsnc(Cl)c2=O)ccc1Cl` [Compound 54, 3-chloro-5-(4-chloro-3-methylphenoxy)-4H--1,2,6-thiadiazin-4-one], the pest or weed control at 150 ppm, 3.8 mg/pot with Fusarium solani came to 0%. In the test with Pyricularia oryzae, the inhibition at 5 ppm amounted to 50%. In addition, the inhibition at 10 ppm in the test on Pyricularia oryzae came out at 53%. Moreover, the inhibition at 20 ppm in the test with Pyricularia oryzae came to 56%. In addition, the inhibition at 40 ppm in the test on Pyricularia oryzae was 65%. Further, the “Spore Germination Rating” value in the test on Cladosporium cucumerinum (1.0 ppm) is given as 2 (40-60); in the test on Cladosporium cucumerinum (2.5 ppm), 0 (0-10); in the test with Cladosporium cucumerinum (10 ppm), 0 (0-10); in the test with Cladosporium cucumerinum (40 ppm), 0 (0-10). The pest or weed control at 150 ppm in the test on Cercospora beticola amounted to 0%.
As to `Cc1cc(Cl)ccc1Oc1nsnc(Cl)c1=O` [Compound 55, 3-chloro-5-(4-chloro-2-methylphenoxy)-4H--1,2,6-thiadiazin-4-one], the pest or weed control at 150 ppm, 3.8 mg/pot in the test on Fusarium solani was 0%. Also, in the test with Pyricularia oryzae, the inhibition at 5 ppm amounted to 41%. Also, the inhibition at 10 ppm with Pyricularia oryzae amounted to 59%. The inhibition at 20 ppm in the test with Pyricularia oryzae was 51%. Further, the inhibition at 40 ppm with Pyricularia oryzae amounted to 53%. The “Spore Germination Rating” value with Cladosporium cucumerinum (1.0 ppm) was 2 (40-60); with Cladosporium cucumerinum (2.5 ppm) it was 1 (10-40); in the test with Cladosporium cucumerinum (10 ppm), 0 (0-10); in the test with Cladosporium cucumerinum (40 ppm), 0 (0-10). Further, the pest or weed control at 150 ppm with Cercospora beticola came out at 95%.
Consider `Cc1ccc(Oc2nsnc(Cl)c2=O)c(Br)c1` [Compound 57, 3-[(2-bromo-4-methyl)-phenoxy]-5-chloro-4H--1,2,6-thiadiazin-4-one], for which the pest or weed control at 150 ppm, 3.8 mg/pot in the test with Fusarium solani came to 0%. Moreover, in the test on Pyricularia oryzae, the inhibition at 5 ppm was determined as 46%. For the same compound, the inhibition at 10 ppm in the test with Pyricularia oryzae came to 61%. In addition, the inhibition at 20 ppm in the test on Pyricularia oryzae came out at 71%. Further, the inhibition at 40 ppm with Pyricularia oryzae was 61%. Also, the “Spore Germination Rating” value with Cladosporium cucumerinum (1.0 ppm) is on record as 3 (60-80); in the test on Cladosporium cucumerinum (2.5 ppm), 0 (0-10); in the test on Cladosporium cucumerinum (10 ppm), 0 (0-10); in the test with Cladosporium cucumerinum (40 ppm), 0 (0-10). Moreover, the pest or weed control at 150 ppm with Cercospora beticola was determined as 90%.
`Cc1cc(Cl)c(Oc2nsnc(Cl)c2=O)cc1C` [Compound 58, 3-chloro-5-[(2-chloro-4,5-dimethyl)phenoxy]-4H--1,2,6-thiadiazin-4-one]: the pest or weed control at 150 ppm, 3.8 mg/pot in the test with Fusarium solani worked out at 0%. Moreover, in the test on Pyricularia oryzae, the inhibition at 5 ppm stood at 43%, the inhibition at 10 ppm was determined as 54%, the inhibition at 20 ppm stood at 29% and the inhibition at 40 ppm amounted to 50%. In the test with Cladosporium cucumerinum (1.0 ppm), the “Spore Germination Rating” value is on record as 3 (60-80). In addition, the “Spore Germination Rating” value in the test with Cladosporium cucumerinum (2.5 ppm) is given as 0 (0-10). For the same compound, the “Spore Germination Rating” value in the test with Cladosporium cucumerinum (10 ppm) was 0 (0-10). In addition, the “Spore Germination Rating” value in the test on Cladosporium cucumerinum (40 ppm) is listed as 0 (0-10). The pest or weed control at 150 ppm in the test on Cercospora beticola came to 0%.
Turning to `Cc1cc(Oc2nsnc(Cl)c2=O)cc(C)c1Cl` [Compound 59, 3-chloro-5-[(4-chloro-3,5-dimethyl)phenoxy]-4H--1,2,6-thiadiazin-4-one], in the test with Fusarium solani, the pest or weed control at 150 ppm, 3.8 mg/pot came to 0%. Moreover, in the test on Pyricularia oryzae, the inhibition at 5 ppm is 50%, the inhibition at 10 ppm was 61%, the inhibition at 20 ppm amounted to 50% and the inhibition at 40 ppm turned out to be 50%. Also, in the test with Cladosporium cucumerinum (1.0 ppm), the “Spore Germination Rating” value is listed as 1 (10-40). Also, the “Spore Germination Rating” value in the test with Cladosporium cucumerinum (2.5 ppm) is given as 0 (0-10). Further, the “Spore Germination Rating” value with Cladosporium cucumerinum (10 ppm) is 0 (0-10). Also, in the test with Cladosporium cucumerinum (40 ppm), the “Spore Germination Rating” value was 0 (0-10). Also, in the test on Cercospora beticola, the pest or weed control at 150 ppm turned out to be 0%.
Take `Cc1cc(Oc2nsnc(Cl)c2=O)cc(C)c1Br` [Compound 60, 3-[(4-bromo-3,5-dimethyl)-phenoxy]-5-chloro-4H--1,2,6-thiadiazin-4-one]: the pest or weed control at 150 ppm, 3.8 mg/pot in the test on Fusarium solani came out at 0%. Moreover, in the test with Pyricularia oryzae, the inhibition at 5 ppm was found to be 32%, the inhibition at 10 ppm is 43%, the inhibition at 20 ppm is 43% and the inhibition at 40 ppm came to 64%. Also, the “Spore Germination Rating” value with Cladosporium cucumerinum (1.0 ppm) is recorded as 0 (0-10). Besides, in the test with Cladosporium cucumerinum (2.5 ppm), the “Spore Germination Rating” value was 0 (0-10). In addition, the “Spore Germination Rating” value with Cladosporium cucumerinum (10 ppm) is reported as 0 (0-10). Besides, in the test on Cladosporium cucumerinum (40 ppm), the “Spore Germination Rating” value is recorded as 0 (0-10). Besides, in the test on Cercospora beticola, the pest or weed control at 150 ppm was determined as 0%.
